Test results from PMC12515225, “Targeting neuroblastoma with hydroxamic acid based HDAC1 and HDAC2 inhibitors: Insights from in vitro and in vivo studies” (Investigational New Drugs, 2025).
pIC50: −log10 of the molar value.

Tests used:
HDAC2 = HDAC2 (Homo sapiens, UniProt Q92769); assay: fluorogenic HDAC activity assay with HDAC2 protein (BPS […]), Boc-Lys(Ac)-AMC substrate; format: biochemical
HDAC1 = HDAC1 (Homo sapiens, UniProt Q13547); assay: fluorogenic HDAC activity assay with HDAC1 protein (BPS […]), Boc-Lys(Ac)-AMC substrate; format: biochemical
Sequence of HDAC1 (Q13547 whole entry): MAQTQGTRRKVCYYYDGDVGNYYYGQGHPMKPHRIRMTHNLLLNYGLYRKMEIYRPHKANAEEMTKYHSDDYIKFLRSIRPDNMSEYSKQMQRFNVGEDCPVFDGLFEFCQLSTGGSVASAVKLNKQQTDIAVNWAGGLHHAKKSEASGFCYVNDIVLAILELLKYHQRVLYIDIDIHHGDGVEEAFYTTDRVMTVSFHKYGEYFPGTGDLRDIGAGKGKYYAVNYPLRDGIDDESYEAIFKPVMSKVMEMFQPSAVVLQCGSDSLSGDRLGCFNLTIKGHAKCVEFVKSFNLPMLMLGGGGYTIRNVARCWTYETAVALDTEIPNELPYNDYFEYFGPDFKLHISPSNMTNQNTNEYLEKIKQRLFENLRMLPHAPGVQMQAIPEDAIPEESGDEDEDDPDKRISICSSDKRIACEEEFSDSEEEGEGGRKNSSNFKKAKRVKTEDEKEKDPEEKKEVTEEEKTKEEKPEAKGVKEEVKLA

Sequence of HDAC2 (Q92769 whole entry): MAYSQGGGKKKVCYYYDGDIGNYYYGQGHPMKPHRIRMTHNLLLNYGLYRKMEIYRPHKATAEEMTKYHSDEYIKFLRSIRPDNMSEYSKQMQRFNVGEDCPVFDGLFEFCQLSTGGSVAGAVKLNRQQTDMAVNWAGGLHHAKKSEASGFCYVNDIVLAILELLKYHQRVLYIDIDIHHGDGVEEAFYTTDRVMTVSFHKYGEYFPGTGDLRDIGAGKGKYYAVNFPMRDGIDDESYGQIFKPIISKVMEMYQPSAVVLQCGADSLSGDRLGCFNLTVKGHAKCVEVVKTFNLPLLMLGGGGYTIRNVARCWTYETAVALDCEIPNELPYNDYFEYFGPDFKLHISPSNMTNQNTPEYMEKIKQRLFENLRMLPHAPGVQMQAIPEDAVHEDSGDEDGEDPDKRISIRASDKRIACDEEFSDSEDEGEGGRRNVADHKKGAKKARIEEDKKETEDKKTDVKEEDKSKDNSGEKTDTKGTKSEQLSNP

pIC50 (HDAC2) | pIC50 (HDAC1) | SMILES
6.05 | – | O=C(NO)c1cccc(-c2ccccn2)n1 [3A, N-hydroxy[2,2'-bipyridine]-6-carboxamide]
5.71 | 6.36 | O=C(CCCCCCC(=O)Nc1cccc(-c2ccccn2)n1)NO [3B, N^1-([2,2'-bipyridin]-6-yl)-N^8-hydroxyoctanediamide]
